Experiment [1] has as its system human chronic myelocytic leukemia-derived K562 cells. Briefly: Cell growth inhibition test with K562 cells (WST-1). Format: cell-based. The note with it: 72 hours, read-out: 50% growth inhibition concentration (GI50). In outline: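 K562 cells at 1500 cells/well in 10% FCS RPMI 1640, pre-incubated 5 h, then exposed to serially diluted compound for 72 h at 37° C, 5% CO2. Viability read by WST-1 after 2 h (absorbance 450/655 nm); GI50 reported.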
For orientation: Tetrazolium assays rely on reduction of a dye to a coloured formazan, in cell work by metabolically active cells.

Experiment [2] deals with FGFR3 (fibroblast growth factor receptor 3). The experiment can be described thus: Deletion of protein encoded by immunoglobulin gene-translocated partner gene in KMS-11 cells (Western blotting). Format: cell-based, human. As to conditions: 10 μmol/L and 1.0 μmol/L, 24 hours, FIG. 1. Here is the method: (§1) Human multiple myeloma-derived KMS-11 cells [In Vitro Cell. Dev. Biol., 25, 723 (1989)], which had been diluted with a 10% fetal calf serum-containing RPMI 1640 (incubation medium) to 100,000 cellImL, were put in a 6-well plastic plate for cell incubation (Nunc), in an amount of 3 mL/well. It is reported that the KMS-11 cells express a large quantity of FGFR3 (fibroblast growth factor receptor 3) as a result of translocation between the immunoglobulin gene in 14q32 and the FGFR3 gene in 4p16.3 [Blood 90, 4062 (1997)]. […]
(§2) To the thus-collected cells, added was a cooled cytolysis buffer (50 mmol/L HEPES NaOH, pH 7.4, 250 mmol/L sodium chloride, 1 mmol/L ethylenediamine-tetraacetic acid, 1% Nonidet P-40, 1 mmol/L dithiothreitol, 1 mmol/L phenylmethylsulfonyl fluoride, 5 μg/mL leupeptin), and kept at 4° C. for 30 minutes for cytolysis. […] The protein concentration in the resulting supernatant was measured, and samples were prepared so as to have the same protein amount for each lane, and these were subjected to SDS (sodium dodecylsulfate)-polyacrylamide gel electrophoresis for protein separation.
(§3) Thus separated, the protein sample was transferred onto a polyvinylidene difluoride membrane (Millipore). […] After further reaction with an ECL reagent (Amersham Biosciences), the protein bands were detected on an X-ray film. […]
(In general: A western blot detects proteins with antibodies after separation by electrophoresis.)

The test system of another experiment is Erk2. Briefly: Western blotting of non-Hsp90 client protein in KMS-11 cells. As to conditions: 10 μmol/L and 1.0 μmol/L, 24 hours, FIG. 1. Format: cell-based, human. Here is the method:
as §1, §2, §3

In experiment [3] the test system is human multiple myeloma-derived KMS-11 cells. Briefly: Cell growth inhibition test with KMS-11 cells (WST-1). Format: cell-based. The note with it: 72 hours, read-out: 50% growth inhibition concentration (GI50). How it is done: In a 96-well plate (Nunc), human multiple myeloma-derived KMS-11 cells were sown in an amount of 4000 cells/well, and pre-incubated in 10% FCS-containing RPMI 1640 (Nissui) (incubation medium) in a 5% carbon dioxide incubator at 37° C. for 24 hours. Next, a DMSO solution of a test compound controlled at 10 mmol/L was stepwise diluted with the incubation medium, and added to each well in a total amount of 100 μL/well, and further incubated in the 5% carbon dioxide incubator at 37° C. for 72 hours. After the incubation, WST-1-labeled mixture (Rosh Diagnostic) diluted 2-fold with the incubation medium was added thereto in an amount of 20 μL/well, and incubated in the 5% carbon dioxide incubator at 37° C. for 2 hours. Using a microplate spectrophotometer (Biorad's Model 550), the absorbance at 450 nm and 655 nm of each well was measured. The cell growth inhibition activity of the test compound was indicated by the 50% growth inhibition concentration (GI50) thereof, like in Test Example 2.

`CCc1c(O)cc(O)c(-c2ccccc2)c1CCc1ocnc1C(=O)O` [Compound 209, 5-[2-(2-Ethyl-3,5-dihydroxy-6-phenylphenyl)ethyl]-1,3-oxazole-4-carboxylic acid]: the GI50 in experiment [1] and in experiment [3] was at most 50 µM throughout. Besides, the “deletion of FGFR3 encoded by the immunoglobulin gene-translocated partner gene” value in experiment [2] is on record as “deletion of FGFR3”. For the same molecule, in the experiment on Erk2, the “protein amount of Erk2 (non-Hsp90 client protein)” value is listed as “no change”.

As to `CCc1c(O)cc(O)c(-c2ccccc2)c1CC1O[C@H](CO)[C@@H](CO)O1` [Compound 218, 5-{[(4R,5R)-4,5-bis(hydroxymethyl)-1,3-dioxolan-2-yl]methyl}-6-ethyl-4-phenylbenzene-1,3-diol], the GI50 in experiment [1] and in experiment [3] was at most 50 µM each time. The “deletion of FGFR3 encoded by the immunoglobulin gene-translocated partner gene” value in experiment [2] is “deletion of FGFR3”. In addition, in the experiment on Erk2, the “protein amount of Erk2 (non-Hsp90 client protein)” value is “no change”.

The values above are taken from patent publication US7538241B2, “Hsp90 family protein inhibitors” (Kyowa Hakko Kogyo Co., Ltd., priority 2003, dated 2009).
